Conditions: pH 7.4

Row | SMILES | critical pressure of insertion, Cardiolipin
1 | CC(C)[C@H]1OC(=O)[C@H](Cc2ccccc2)N(C)C(=O)[C@@H](C(C)C)OC(=O)[C@H](Cc2ccccc2)N(C)C(=O)[C@@H](C(C)C)OC(=O)[C@H](Cc2ccccc2)N(C)C1=O [BEA, Beauvericin] | --
2 | CC[C@H](C)[C@H]1C(=O)O[C@H](C(C)C)C(=O)N(C)[C@@H]([C@@H](C)CC)C(=O)O[C@H](C(C)C)C(=O)N(C)[C@@H](C(C)C)C(=O)O[C@H](C(C)C)C(=O)N1C [ENN A1] | 48.57 mN/m
3 | CC[C@H](C)[C@H]1C(=O)O[C@H](C(C)C)C(=O)N(C)[C@@H]([C@@H](C)CC)C(=O)O[C@H](C(C)C)C(=O)N(C)[C@@H]([C@@H](C)CC)C(=O)O[C@H](C(C)C)C(=O)N1C [ENN A] | 49.72 mN/m
4 | CC[C@H](C)[C@H]1C(=O)O[C@H](C(C)C)C(=O)N(C)[C@@H](C(C)C)C(=O)O[C@H](C(C)C)C(=O)N(C)[C@@H](C(C)C)C(=O)O[C@H](C(C)C)C(=O)N1C [ENN B1] | 43.51 mN/m
5 | CC(C)[C@H]1C(=O)O[C@H](C(C)C)C(=O)N(C)[C@@H](C(C)C)C(=O)O[C@H](C(C)C)C(=O)N(C)[C@@H](C(C)C)C(=O)O[C@H](C(C)C)C(=O)N1C [ENN B] | 33.29 mN/m
